Reference: patent publication US20260240792A1, “COMPOSITIONS FOR TREATING 5-HT2 CONDITIONS AND METHODS OF USING THE SAME” (Board of Supervisors of Louisiana State University and …, priority 2022, published 2026)
Entries after “also recorded” stand apart in the source; their conditions may differ.

Tests used:
[1] = test system: TGF-Induced SMAD-mediated signaling; assay: TGF-β induced SMAD-mediated signaling, dual luciferase reporters; format: cell-based
Normal Human Fibroblasts = assay: TGF-β transformation of normal human fibroblasts to myofibroblasts; format: cell-based; conditions: TGF-β treated human fibroblasts
C6 glioma cells = conditions: cocktail of TNF-α and INF-γ, read-out: IC50 for block of LPS and cytokine stimulated nitrite accumulation; cited from earlier work
5-HT2A receptors = 5-HT2A receptors (Homo sapiens, UniProt P28223); conditions: cited from earlier work
Chain of 5-HT2A receptors (P28223 whole entry): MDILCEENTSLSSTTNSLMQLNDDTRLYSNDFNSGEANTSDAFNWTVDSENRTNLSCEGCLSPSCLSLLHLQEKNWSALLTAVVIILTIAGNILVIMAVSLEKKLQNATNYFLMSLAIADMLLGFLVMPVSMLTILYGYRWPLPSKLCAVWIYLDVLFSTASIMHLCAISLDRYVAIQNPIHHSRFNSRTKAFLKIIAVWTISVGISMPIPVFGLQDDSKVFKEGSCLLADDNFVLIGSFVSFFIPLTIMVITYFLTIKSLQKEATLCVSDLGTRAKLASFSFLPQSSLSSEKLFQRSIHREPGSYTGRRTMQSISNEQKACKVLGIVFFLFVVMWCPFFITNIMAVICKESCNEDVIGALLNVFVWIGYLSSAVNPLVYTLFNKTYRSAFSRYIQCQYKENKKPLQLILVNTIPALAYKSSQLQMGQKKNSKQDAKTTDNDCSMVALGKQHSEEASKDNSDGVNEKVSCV

rabbits [2] = assay: Topical ocular dosing in rabbits: observation of CNS, systemic, ocular and behavioral effects, ocular tolerability; format: in vivo, rabbit; conditions: 0.01%
Protocol: Apparent Ocular Irritability • b. Induction of Inflammation • c. Reduction of Corneal Barrier Integrity • d. Dry Eye or Excessive Tearing • e. Induction of Neovascularization • f. Induction of Scleral Reddening
Parameters Assessed during 2 hour Observation Window (see, for example, FIG. 1):
Two studies were performed to determine at what dose between 0.01% and 0.1% were behavioral and/or systemic effects observed. 50 μL doses at 0.01%, 0.05%, and 0.075% per eye applied and assessments were made as indicated herein.
The application of most topical eye drops requires repeatedly dosing up to 9 times per day in order to maintain efficacy across the course of waking hours and have efficacious levels available during sleeping hours. The effects of repeated ocular dosing of R-DOI were assessed in a similar manner as described herein, with the exception that doses of 0.01% or 0.05% were applied repeatedly as outlined herein:
Animals from the acute dosing were continued through the repeated dosing study. Animals were dosed at the indicated concentration 2 times on day 1 and then dosed 4 times per day for 3 subsequent days. Doses were administered at 50 μl per eye into both eyes of the animal.
Rabbits were assessed for clinically clear eyes by slit lamp ophthalmic scoring. All eyes of all rabbits were normal.
Following balancing animals were treated with 50 μL of Control ophthalmic BSS/0.5% CMC or 0.01% Compound 1 in ophthalmic BSS/0.5% CMC.
Any behavioral changes were continuously monitored over the next 2.5 hours (FIG. 3).
We can determine if a single dose of the ocular composition of 0.01% R-DOI with 0.5% carboxymethylcellulose in ophthalmic BSS: • 1. Reproduced previous findings that R-DOI had IOP depressing effects. • 2. Produced any readily observable behavioral effects. • 3. Was tolerated by the eye without adverse ocular effects, including absence of: • a. Apparent Ocular Irritability • b. Induction of Inflammation • c. Dry Eye or Excessive Tearing • d. Induction of Scleral Reddening • 4. Reduced IOP • 5. Maintained Reduction in IOP • 6. Increased Tear Film Production
(§1) • Rabbits were assessed for clinically clear eyes by slit lamp ophthalmic scoring. All eyes of all rabbits were normal. • Each eye of each rabbit was then assessed for initial IOP by tonometer. • Each eye of each rabbit was assessed for tear film production by Schirmer's Tear Flo Strips at a 30 second interval of analysis. Tear measures were evaluated by a digital caliper to determine mm of tears collected. • Rabbits were sorted into two groups attempting to balance IOP numbers (one higher, one lower animal per group). • Following animals were treated with 50 μL of Control ophthalmic BSS/0.5% CMC or 0.01% R-DOI HCl in ophthalmic BSS/0.5% CMC. • Any apparent behavioral changes were continuously monitored over the next 2.5 hours. • IOP determinations were made at 30 minutes, 1 hour, 2 hours and 3 hours, 5 hours, 7 hours and 24 hours-eyes were examined closely for any adverse effects during these IOP measures. • 7 hours post treatment when IOP returned to control levels tear film production was assessed (see, for example, FIG. 9).

rabbits [3] = assay: Intraocular pressure (IOP) after topical ocular dosing in rabbits; format: in vivo, rabbit
Protocol: The IOP was assessed as a component of clinical outcomes for the animals in the studies described herein. The table below represents the effect of R-DOI on IOP 2 hours after dosing with the indicated concentration of R-DOI. Eyes were individually assessed and are indicated as IOP for the right (OD) or left (OS) eye.
Each eye of each rabbit was then assessed for initial IOP by tonometer.
IOP determinations were made at 30 minutes, 1 hour, 1.5 hours and 2.5 hours-eyes were examined closely for any adverse effects during these IOP measures.
(§2) 3 days post treatment at the same time initial measures were made, IOP and tear film production were re-assessed to examine if effects were sustained post 1 treatment.
The IOP was assessed via a TonoVet rebound Tonometer. The tables herein (see, for example, FIG. 4) represent the effect of Compound 1 on IOP at time intervals within the first 2.5 hours after dosing with 0.01% Compound 1 in BSS with 0.5% CMC. Eyes were individually assessed and are indicated as IOP for the right (OD) or left (OS) eye. 3 days post treatment eyes were reassessed for IOP changes to see if the effects of treatment lasted over a prolonged period.
as §1
The IOP was assessed via a TonoVet rebound Tonometer. The tables herein (see, for example, FIGS. 10-11) represents the effect of R-DOI on IOP at the defined time intervals Eyes were individually assessed and are indicated as IOP for the right (OD) or left (OS) eye.

rabbits [4] = assay: Tear film production by Schirmer's Tear Flo Strips in rabbits; format: in vivo, rabbit
Protocol: Each eye of each rabbit was assessed for tear film production by Schirmer's Tear Flo Strips at a 30 second interval of analysis. Tear measures were evaluated by a digital caliper to determine mm of tears collected.
as §2
(§3) Effects of Compound 1 on Tear Production: Current IOP lowering glaucoma drugs eventually have effects on tear production resulting in dry eye conditions. Further, there are additional associations between dry eye and glaucoma, with co-incidence of the two conditions quite common. […] Selective 5-HT agonists/antagonists can reverse symptoms of dry eye-a very large ophthalmic market. The effects of Compound 1 on tear film production (see, for example, FIG. 6 panels A-D) were therefore assessed by a Schirmer's Tear Flo strip and measured using a digital micrometer caliper.
as §1
as §3, with “R-DOI” for “Compound 1”, “conditions” for “conditions quite”, “production” for “production (see, for example, FIG. 6 panels A-D)”

[5] = Solubility in ophthalmic eye drop (BSS, 0.5% CMC); format: physicochemical; conditions: 0.1% (5 mg/5 mL) in BSS with 0.5% CMC, pH 7.0
Protocol: Non-Limiting, Exemplary Findings Discussed within: • The NCE Compound 1 was formulated within an ophthalmic eye drop with BSS and 0.5% carboxymethylcellulose (CMC) at percentages of 0.1% (5 mg/5 ml) and lower with a pH of 7.0.
• The R-DOI HCl was formulated within an ophthalmic eye drop with BSS and 0.5% carboxymethylcellulose (CMC) at percentages of 0.1% (5 mg/5 mL) and lower with a pH of 7.0.

## COc1cc(CC(C)N)c(OC)cc1I (centres unmarked) [DOI, 2,5-Dimethoxy-4-iodoamphetamine]
[1]
  TGF-Induced SMAD-mediated signaling: Reduces TGF-Induced SMAD-mediated signaling
Normal Human Fibroblasts
  Transformation into Myofibroblasts: Prevents Transformation into Myofibroblasts
C6 glioma cells
  IC50: 8 ± 3 nM

## O=C(c1ccc(F)cc1)C1CCN(CCn2c(=O)[nH]c3ccccc3c2=O)CC1 [ketanserin]
5-HT2A receptors
  selectivity for 5-HT2A receptors over 5-HT2C receptors: ~ 20 fold

## COc1cc(CC(C)C)c(OC)cc1CCN [Compound 1]
Rabbits [2]; 50 μL per eye, both eyes, single dose
  adverse events (ocular, systemic, behavioral or otherwise): No readily apparent adverse events; also recorded: No observable changes; also recorded: no adverse or abnormal events observed
Rabbits [2]; acute single dosing
  acute ocular toxicity, irritability or adverse ocular reactions: did not exhibit any acute ocular toxicity, irritability or adverse ocular reactions; also recorded: did not display any signs of ocular irritability
Rabbits [3]; 0.01% single dose, non-diseased eye model
  period for which decreased intraocular pressure was sustained post administration: at least 3 days
Rabbits [3]; 0.01% single dose, 30 minutes, 1 hour, 1.5 hours, 2.5 hours
  IOP across the 2.5 hour observation window: decreased IOP at all points across the 2.5 hour observation window
Rabbits [3]; post single dose administration of 0.01%
  Return to Baseline IOP: approximately 12 days
Rabbits [3]; single topical ocular dose
  effect on intraocular pressure: decreased intraocular pressure with a single dose
Rabbits [4]; 0.01% single dose, 2.5 h post treatment
  average increase in tear film production: 3.4 mm
Rabbits [4]; 0.01% single dose, 3 days post treatment
  average increase of tear film: approximately 1.9 mm
Rabbits [4]; topical ocular dose
  tear production as measured by Schirmer's test: increased tear production; also recorded: significant increase in tear production
[5]
  Solubility of the compound: good with no remaining precipitates
